The numbers were not newly measured in patent US5370873A, “Therapeutic compounds derived from the neem tree” (priority 1992, dated 1994), which cites them from elsewhere.

Where two headings read alike, the source gives them in different places.

Series [1] deals with murine P-388 lymphocytic leukemia cell line.
For series [2] the following is noted: in vivo.
Test in series [3]: not given
This is another data set of the same source.

Regarding 1,2-diapoxyazadiradione, the “ED50, murine P-388 lymphocytic leukemia cell line” value in series [1] is 8.5 mg.

7-acetyl neotrichilenone: the “ED50, murine P-388 lymphocytic leukemia cell line” value in series [1] is reported as 10 mg.

On to `C/C=C(\C)C(=O)O[C@H]1C[C@@H](OC(C)=O)[C@@]2(C(=O)OC)CO[C@H]3[C@@H](O)[C@@](C)([C@]45O[C@@]4(C)[C@H]4C[C@@H]5O[C@@H]5OC=C[C@@]54O)[C@H]4[C@]1(CO[C@]4(O)C(=O)OC)[C@@H]32` [azadiractin], for which the insect feeding repellency result in the series on insect is given as “very potent insect feeding repellents”.

As to `CC(=O)O[C@@H]1C[C@H]2C(C)(C)C(=O)C=C[C@]2(C)[C@H]2CC[C@@]3(C)[C@H](c4ccoc4)OC(=O)[C@H]4O[C@]43[C@@]21C` [gedunin], the “inhibition of development of Plasmodium falciparum in vitro” value with Plasmodium falciparum is given as “inhibit the development of the human malarial parasite Plasmodium falciparum in vitro”.

Regarding Neem oil, the “local or systemic side effects in human subjects” value in series [2] and in series [2] (po) was “no local or systemic side effects” each time.

Regarding nimbidin, the “systemic toxicity in rats” value is “failed to demonstrate any systemic toxicity”. Also, in series [3], the “systemic toxicity in dogs” value is given as “failed to demonstrate any systemic toxicity”.
